Results on five compounds are retold here after ChEMBL document CHEMBL5625210, “5-Cyano substituted diarylpyridines as potent HIV-1 NNRTIs: Rational design, synthesis, and activity evaluation” (Eur J Med Chem, 2023).

For data set [1], the system named is Human immunodeficiency virus 2. Nature of the data set: Antiviral activity against wild type HIV-2 ROD infected in human MT4 cells assessed as protection against virus-induced cytopathic effect incubated for 5 days by MTT assay. It counts as functional, organism-based. As to conditions: Human immunodeficiency virus 2, ROD, MT4, 120 h. In general terms: Protection from cytopathic effect is a common read-out in antiviral testing.

Data set [2] has as its system Human immunodeficiency virus 1. Nature of the data set: Antiviral activity against wild type HIV-1 IIIB infected in human MT4 cells assessed as protection against virus-induced cytopathic effect incubated for 5 days by MTT assay. The following applies: Human immunodeficiency virus 1, IIIB, MT4, 120 h. It counts as functional, organism-based.
The nature of data set [3]: Cytotoxicity against human MT4 cells assessed as reduction in cell viability incubated for 5 days by MTT assay. The following applies: time 5 day. It is filed as toxicity, cell-based. (Tetrazolium assays rely on reduction of a dye to a coloured formazan, in cell work by metabolically active cells.)
The test system of data set [4] is Human immunodeficiency virus 1. Nature of the data set: Antiviral activity against HIV-1 […] mutant infected in human MT4 cells assessed as protection against virus-induced cytopathic effect incubated for 5 days by MTT assay. It counts as functional, organism-based. As to conditions: Human immunodeficiency virus 1, MT4, 120 h.
The subject of data set [5] is Human immunodeficiency virus 1. The experiment in a line: Antiviral activity against HIV-1 K103N mutant infected in human MT4 cells assessed as protection against virus-induced cytopathic effect incubated for 5 days by MTT assay. It is filed as functional, organism-based. As to conditions: Human immunodeficiency virus 1, MT4, 120 h.
Data set [6] concerns Human immunodeficiency virus 1. The experiment in a line: Antiviral activity against HIV-1 Y181C mutant infected in human MT4 cells assessed as protection against virus-induced cytopathic effect incubated for 5 days by MTT assay. It counts as functional, organism-based. The following applies: Human immunodeficiency virus 1, MT4, 120 h.
Data set [7] deals with Human immunodeficiency virus 1. The experiment in a line: Antiviral activity against HIV-1 Y188L mutant infected in human MT4 cells assessed as protection against virus-induced cytopathic effect incubated for 5 days by MTT assay. It counts as functional, organism-based. The following applies: Human immunodeficiency virus 1, MT4, 120 h.
The subject of data set [8] is Human immunodeficiency virus 1. Nature of the data set: Antiviral activity against HIV-1 E138K mutant infected in human MT4 cells assessed as protection against virus-induced cytopathic effect incubated for 5 days by MTT assay. It is filed as functional, organism-based. As to conditions: Human immunodeficiency virus 1, MT4, 120 h.
The subject of data set [9] is Human immunodeficiency virus 1. Nature of the data set: Antiviral activity against HIV-1 F227L/V106A mutant infected in human MT4 cells assessed as protection against virus-induced cytopathic effect incubated for 5 days by MTT assay. It is filed as functional, organism-based. As to conditions: Human immunodeficiency virus 1, MT4, 120 h.
Data set [10] has as its target Human immunodeficiency virus type 1 reverse transcriptase (Human immunodeficiency virus 1, UniProt Q72547). Nature of the data set: Inhibition of wild type HIV-1 reverse transcriptase assessed as inhibition of biotin-dUTP incorporation using ABTS as substrate incubated for 1 hrs by ELISA analysis. (In general: An ELISA detects its analyte on a solid surface through an enzyme-linked reagent.)

A further data set is described as follows: in vitro. As to conditions: human, MT4 cells.
The subject of data set [11] is Human immunodeficiency virus 1. The experiment in a line: microbe, parasite or virus in culture. The following applies: Human immunodeficiency virus 1, MT4, 120 h.
Description: Antiviral activity against HIV-1 RES056 mutant infected in human MT4 cells assessed as protection against virus-induced cytopathic effect incubated for 5 days by MTT assay

SMILES strings stand for the structures. A value given as a limit tells only on which side of the number the result lay.

Description for in vitro: Selectivity index, ratio of CC50 for cytotoxicity against human MT4 cells to EC50 for antiviral activity against wild type HIV-1 IIIB infected in human MT4 cells

The term EC50 denotes the concentration that produces a half-maximal response. As usually defined, the CC50 is the concentration at which the toxic effect on the cells reaches its halfway point. Broadly, the IC50 is the midpoint of a concentration-inhibition curve. For the compound `Cc1cc(C#N)cc(C)c1Oc1nc(Nc2ccc(C#N)c(F)c2)c(C#N)cc1F`, the EC50 in data set [1] is over 218 nM; in data set [2] it was 10.4 nM; in [4], 316 nM; in [5] it was 540 nM; in data set [6], 1930 nM; in [7], 16700 nM. Also, the EC50 in data set [8] was 141 nM; in data set [9] it was 710 nM; in data set [11], over 218000 nM. In data set [3], the CC50 at 120 h was found to be 218000 nM. Moreover, in [10], the IC50 was determined as 143 nM. Further, the selectivity ratio in the data set “in vitro” was found to be 20900.
`Cc1cc(C#N)cc(C)c1Oc1nc(NC2CCN(Cc3ccc(C(N)=O)cc3)CC2)c(C#N)cc1F`: the EC50 is over 24.5 nM in [1]; 6.02 nM in data set [2]; 100 nM in data set [4]; 44.1 nM in data set [5]; 84.2 nM in data set [6]; 227 nM in data set [7]. Moreover, the EC50 turned out to be 26.1 nM in data set [8], 347 nM in data set [9] and 3590 nM in data set [11]. Further, the CC50 at 120 h in [3] is 24100 nM. Also, the IC50 in data set [10] stood at 303 nM. Besides, the selectivity ratio in “in vitro” was 4010.
Consider `Cc1cc(C#N)cc(C)c1Oc1nc(Nc2ccc(CN3CCN(S(C)(=O)=O)CC3)cc2)c(C#N)cc1Cl`, for which the concentration giving a half-maximal response (EC50) was over 208 nM in [1]; 14.5 nM in [2]; 238 nM in [4]; 633 nM in data set [5]; 555 nM in data set [6]; 2960 nM in data set [7]. The results for the EC50 in data set [8], in [9] and in [11] were 131 nM, 276 nM and over 208000 nM, respectively. The CC50 at 120 h in [3] came to 208000 nM. Also, in data set [10], the IC50 stood at 392 nM. In “in vitro”, the selectivity ratio was found to be 14300.
As for `Cc1cc(C#N)cc(C)c1Oc1nc(NC2CCN(Cc3ccc(S(C)(=O)=O)cc3)CC2)c(C#N)cc1F`, the EC50 in [1] is over 27 nM; in [2] it was 5.62 nM; in data set [4] it was 22.5 nM; in [5], 9.37 nM; in data set [6] it was 28.1 nM; in data set [7], 73.1 nM. For the same compound, the results for the EC50 in [8], in [9] and in [11] were 18.7 nM, 67.5 nM and 171 nM, respectively. In addition, in data set [3], the CC50 at 120 h worked out at 27500 nM. In [10], the half-inhibitory concentration (IC50) worked out at 341 nM. In the data set “in vitro”, the selectivity ratio was 4890.
With `Cc1cc(C#N)cc(C)c1Oc1ccc(C#N)c(NC2CCN(Cc3ccc(S(C)(=O)=O)cc3)CC2)n1`, the EC50 was over 19.1 nM in [1]; 5.82 nM in data set [2]; 136 nM in data set [4]; 34.9 nM in data set [5]; 38.8 nM in [6]; 244 nM in [7]. The EC50 in data set [8] was 211 nM; in data set [9], 182 nM; in [11], 7180 nM. The CC50 at 120 h in [3] was determined as 19100 nM. Moreover, in [10], the IC50 is 429 nM. For the same compound, the selectivity ratio in the data set “in vitro” came to 3290.
